Data set [1] deals with Vascular endothelial growth factor receptor 2 (Homo sapiens, UniProt P35968). Put plainly: Inhibition of VEGFR2 (unknown origin).
Data set [2] addresses Phosphatidylinositol 4,5-bisphosphate 3-kinase catalytic subunit alpha isoform (Homo sapiens, UniProt P42336). The data set can be described thus: Inhibition of PI3Kalpha (unknown origin) by kinase profiling assay.
Data set [3] in a line: Clearance in rat at 5 mg/kg, iv. Conditions: in vivo. The class given is ADME, organism-based.
Data set [4] in a line: Oral bioavailability in rat. The class given is ADME, organism-based. Conditions: in vivo.
Data set [5] is described as follows: Oral bioavailability in rat at 5 mg/kg. The class given is ADME, organism-based. Conditions: in vivo.
A short description of data set [6]: Clearance in rat at 1 mg/kg, iv. The class given is ADME, organism-based. Conditions: in vivo.
A further data set in a line: in vivo. Conditions: rat, po, 5 mg/kg.
The target in data set [7] is T1, Type-1 angiotensin II receptor (Homo sapiens, UniProt P30556).
T1 sequence (P30556 whole entry): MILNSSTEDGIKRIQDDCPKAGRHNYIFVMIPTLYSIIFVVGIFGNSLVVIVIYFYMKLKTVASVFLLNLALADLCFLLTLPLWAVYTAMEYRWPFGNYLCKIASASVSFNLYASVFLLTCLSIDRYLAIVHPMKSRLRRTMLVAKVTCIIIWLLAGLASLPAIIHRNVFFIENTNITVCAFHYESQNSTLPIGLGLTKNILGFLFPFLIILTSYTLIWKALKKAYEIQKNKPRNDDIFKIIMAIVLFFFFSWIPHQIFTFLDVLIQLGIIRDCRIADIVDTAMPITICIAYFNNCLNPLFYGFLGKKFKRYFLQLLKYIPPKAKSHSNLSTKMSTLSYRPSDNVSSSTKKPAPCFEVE
The data set can be described thus: Binding affinity to AT1R (unknown origin) assessed as inhibition constant.

Another data set deals with T2, fMet-Leu-Phe receptor (Homo sapiens, UniProt P21462).
T2 sequence (P21462 whole entry): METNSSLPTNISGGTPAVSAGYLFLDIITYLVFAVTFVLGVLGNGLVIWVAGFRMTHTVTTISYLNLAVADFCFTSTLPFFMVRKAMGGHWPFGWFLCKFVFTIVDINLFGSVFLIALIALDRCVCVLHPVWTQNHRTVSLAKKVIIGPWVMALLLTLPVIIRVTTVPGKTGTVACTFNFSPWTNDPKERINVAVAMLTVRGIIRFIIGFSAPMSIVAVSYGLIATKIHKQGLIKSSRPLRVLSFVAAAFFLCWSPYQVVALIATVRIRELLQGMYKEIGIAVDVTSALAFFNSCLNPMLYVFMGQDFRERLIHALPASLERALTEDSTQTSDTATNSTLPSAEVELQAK
Put plainly: Inhibition of human FPR expressed in human U-937 cells by fluorescence based ligand binding assay. Type of data set: cell-based.

Data set [8] addresses Sphingosine 1-phosphate receptor 2 (Homo sapiens, UniProt O95136). Put plainly: Agonist activity at S1P2 (unknown origin) expressed in CHO cells assessed as Ca2+ activation. The class given is functional, cell-based.
Data set [9] has as its target Voltage-gated inwardly rectifying potassium channel KCNH2 (Homo sapiens, UniProt Q12809). Put plainly: Inhibition of hERG.
Data set [10] in a line: AUC in Sprague-Dawley rat at 10 mg/kg, po. Conditions: in vivo. The class given is ADME, organism-based.
Data set [11] is described as follows: Metabolic stability in Sprague-Dawley rat assessed as half life. The class given is ADME.
Data set [12] addresses T3, Platelet-derived growth factor receptor beta (Homo sapiens, UniProt P09619). The data set can be described thus: Inhibition of glutathione S-transferase fused PDGFbetaR (unknown origin) in 3T3 cells. The class given is cell-based.
Data set [13] can be described thus: Half life in rat. The class given is ADME. Conditions: in vivo.
The target of data set [14] is T3, Platelet-derived growth factor receptor beta. The data set can be described thus: Inhibition of PDGFRbeta (unknown origin) by enzymatic assay.
Data set [15] shares this target. Put plainly: Inhibition of PDGFRbeta (unknown origin) by DiscoverX KINOMEscan assay.
Data set [16] concerns the target Lysophosphatidic acid receptor 1 (Homo sapiens, UniProt Q92633). The data set can be described thus: Antagonist activity at human LPA1 receptor expressed in CHO cells assessed as inhibition of LPA-induced calcium mobilization pretreated for 15 mins followed by LPA stimulation by FLIPR analysis. The class given is functional, cell-based. Background: Calcium flux is commonly read through the fluorescence of an indicator in the cells.

Usually IC50 stands for the concentration that inhibits the measured activity by half. For orientation: clearance means a measure of how efficiently the substance is removed, as volume per time. A word on the bioavailability: it is dose-corrected exposure relative to a reference, in per cent. Read a high bioavailability as good availability. Broadly, the half-life is how long it takes for the measured level to halve. In general, Ki refers to the equilibrium dissociation constant of an inhibitor or competing ligand from its target. The term EC50 denotes the concentration needed to bring the measured effect to its halfway point.

T3 sequence (P09619 whole entry, the tested form may be a part): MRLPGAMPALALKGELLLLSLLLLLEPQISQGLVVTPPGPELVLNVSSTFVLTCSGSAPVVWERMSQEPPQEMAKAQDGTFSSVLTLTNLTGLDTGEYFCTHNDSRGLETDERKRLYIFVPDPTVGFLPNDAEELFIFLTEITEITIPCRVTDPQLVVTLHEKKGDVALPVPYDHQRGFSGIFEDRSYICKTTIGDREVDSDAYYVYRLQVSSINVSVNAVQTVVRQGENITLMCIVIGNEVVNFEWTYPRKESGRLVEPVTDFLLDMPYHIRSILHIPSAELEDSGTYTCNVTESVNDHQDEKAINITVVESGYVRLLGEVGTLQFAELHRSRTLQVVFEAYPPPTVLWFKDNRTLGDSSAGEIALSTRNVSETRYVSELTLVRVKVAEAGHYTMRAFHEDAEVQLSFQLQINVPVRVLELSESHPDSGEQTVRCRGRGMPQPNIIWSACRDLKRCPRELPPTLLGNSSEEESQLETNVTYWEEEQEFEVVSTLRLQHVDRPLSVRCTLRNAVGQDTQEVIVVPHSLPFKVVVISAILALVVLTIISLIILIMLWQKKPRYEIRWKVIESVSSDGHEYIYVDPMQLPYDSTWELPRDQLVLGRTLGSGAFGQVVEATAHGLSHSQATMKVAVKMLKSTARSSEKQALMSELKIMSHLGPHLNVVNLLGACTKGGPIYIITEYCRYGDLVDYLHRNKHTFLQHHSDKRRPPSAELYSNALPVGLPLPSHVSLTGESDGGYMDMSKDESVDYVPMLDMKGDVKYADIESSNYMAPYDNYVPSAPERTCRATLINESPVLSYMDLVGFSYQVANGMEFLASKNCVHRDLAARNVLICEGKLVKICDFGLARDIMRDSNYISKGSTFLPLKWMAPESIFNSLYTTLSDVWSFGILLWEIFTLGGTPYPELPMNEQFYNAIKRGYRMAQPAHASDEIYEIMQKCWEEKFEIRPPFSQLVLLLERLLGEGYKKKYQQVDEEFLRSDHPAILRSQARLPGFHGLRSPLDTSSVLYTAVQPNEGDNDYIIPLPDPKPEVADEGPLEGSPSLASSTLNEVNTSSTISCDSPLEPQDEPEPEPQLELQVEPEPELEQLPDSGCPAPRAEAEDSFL
Chain of Vascular endothelial growth factor receptor 2 (P35968 whole entry, canonical isoform): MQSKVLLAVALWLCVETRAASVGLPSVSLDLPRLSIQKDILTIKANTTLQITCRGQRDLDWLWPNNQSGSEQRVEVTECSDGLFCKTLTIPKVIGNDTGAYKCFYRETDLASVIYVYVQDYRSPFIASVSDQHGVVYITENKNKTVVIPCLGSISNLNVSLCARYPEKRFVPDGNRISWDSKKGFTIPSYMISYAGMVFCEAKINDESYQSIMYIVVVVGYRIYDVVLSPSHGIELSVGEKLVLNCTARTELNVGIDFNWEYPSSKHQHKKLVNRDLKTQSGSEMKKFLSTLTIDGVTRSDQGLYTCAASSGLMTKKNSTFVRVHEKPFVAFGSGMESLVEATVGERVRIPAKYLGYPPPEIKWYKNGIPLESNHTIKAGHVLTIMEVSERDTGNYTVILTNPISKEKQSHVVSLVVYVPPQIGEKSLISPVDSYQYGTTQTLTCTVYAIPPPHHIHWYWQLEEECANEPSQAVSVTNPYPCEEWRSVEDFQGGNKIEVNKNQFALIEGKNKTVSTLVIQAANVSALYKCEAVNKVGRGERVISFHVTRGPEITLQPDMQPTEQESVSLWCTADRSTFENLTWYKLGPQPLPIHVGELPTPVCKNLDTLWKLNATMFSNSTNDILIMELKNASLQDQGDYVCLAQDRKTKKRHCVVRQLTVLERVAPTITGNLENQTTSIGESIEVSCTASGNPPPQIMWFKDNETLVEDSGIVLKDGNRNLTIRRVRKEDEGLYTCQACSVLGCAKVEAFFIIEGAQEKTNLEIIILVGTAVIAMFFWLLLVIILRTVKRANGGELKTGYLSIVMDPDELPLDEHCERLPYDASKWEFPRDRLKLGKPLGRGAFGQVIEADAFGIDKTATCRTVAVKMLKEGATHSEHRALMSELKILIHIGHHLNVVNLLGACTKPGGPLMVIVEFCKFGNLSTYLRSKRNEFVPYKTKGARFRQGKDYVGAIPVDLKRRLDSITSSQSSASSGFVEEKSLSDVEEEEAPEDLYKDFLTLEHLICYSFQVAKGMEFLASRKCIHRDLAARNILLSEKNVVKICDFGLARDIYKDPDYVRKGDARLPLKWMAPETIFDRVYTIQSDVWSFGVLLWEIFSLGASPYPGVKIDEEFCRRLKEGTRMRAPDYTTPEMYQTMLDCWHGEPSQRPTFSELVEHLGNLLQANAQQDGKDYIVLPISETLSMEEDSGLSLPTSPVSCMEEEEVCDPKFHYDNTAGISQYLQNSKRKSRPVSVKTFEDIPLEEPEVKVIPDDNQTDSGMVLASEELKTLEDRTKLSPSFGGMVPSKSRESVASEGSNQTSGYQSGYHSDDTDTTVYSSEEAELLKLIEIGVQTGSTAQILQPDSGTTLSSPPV
Chain of Phosphatidylinositol 4,5-bisphosphate 3-kinase catalytic subunit alpha isoform (P42336 whole entry, canonical isoform): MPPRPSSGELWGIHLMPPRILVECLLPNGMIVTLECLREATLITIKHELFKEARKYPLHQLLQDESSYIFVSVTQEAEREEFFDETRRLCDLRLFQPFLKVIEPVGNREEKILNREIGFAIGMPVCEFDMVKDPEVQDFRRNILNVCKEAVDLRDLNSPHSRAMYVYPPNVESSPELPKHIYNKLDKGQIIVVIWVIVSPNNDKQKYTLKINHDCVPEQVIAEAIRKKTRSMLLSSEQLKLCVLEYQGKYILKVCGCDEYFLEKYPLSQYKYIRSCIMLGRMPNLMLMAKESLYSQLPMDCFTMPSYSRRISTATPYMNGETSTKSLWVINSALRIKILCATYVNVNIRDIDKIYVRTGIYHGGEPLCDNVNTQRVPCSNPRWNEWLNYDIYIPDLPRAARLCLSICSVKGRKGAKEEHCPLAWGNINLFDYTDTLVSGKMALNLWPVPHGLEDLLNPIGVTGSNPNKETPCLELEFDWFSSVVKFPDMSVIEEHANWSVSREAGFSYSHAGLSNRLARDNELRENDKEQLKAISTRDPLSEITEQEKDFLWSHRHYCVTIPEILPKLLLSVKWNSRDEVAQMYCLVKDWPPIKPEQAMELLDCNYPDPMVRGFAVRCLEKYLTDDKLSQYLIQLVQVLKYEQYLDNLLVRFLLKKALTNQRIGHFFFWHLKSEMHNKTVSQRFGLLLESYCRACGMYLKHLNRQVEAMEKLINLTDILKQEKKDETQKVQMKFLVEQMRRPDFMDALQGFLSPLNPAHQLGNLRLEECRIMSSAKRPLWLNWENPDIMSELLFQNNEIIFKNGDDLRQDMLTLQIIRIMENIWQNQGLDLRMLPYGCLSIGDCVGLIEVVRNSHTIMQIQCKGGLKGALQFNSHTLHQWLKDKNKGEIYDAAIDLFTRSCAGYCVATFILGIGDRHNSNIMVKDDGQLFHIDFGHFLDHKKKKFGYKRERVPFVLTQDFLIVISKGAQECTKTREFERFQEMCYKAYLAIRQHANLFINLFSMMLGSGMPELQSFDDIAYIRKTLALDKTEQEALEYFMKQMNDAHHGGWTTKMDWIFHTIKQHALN
Chain of Sphingosine 1-phosphate receptor 2 (O95136 whole entry): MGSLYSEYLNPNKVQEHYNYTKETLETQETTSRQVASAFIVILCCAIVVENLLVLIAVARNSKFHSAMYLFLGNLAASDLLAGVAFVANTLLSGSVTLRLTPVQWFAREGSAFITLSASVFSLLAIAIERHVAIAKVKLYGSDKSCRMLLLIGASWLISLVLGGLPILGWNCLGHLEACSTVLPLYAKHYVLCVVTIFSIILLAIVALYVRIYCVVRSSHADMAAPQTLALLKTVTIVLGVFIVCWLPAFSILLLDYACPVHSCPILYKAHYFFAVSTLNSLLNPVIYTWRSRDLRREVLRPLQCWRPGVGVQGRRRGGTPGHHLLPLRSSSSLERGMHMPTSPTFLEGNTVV
Chain of Voltage-gated inwardly rectifying potassium channel KCNH2 (Q12809 whole entry): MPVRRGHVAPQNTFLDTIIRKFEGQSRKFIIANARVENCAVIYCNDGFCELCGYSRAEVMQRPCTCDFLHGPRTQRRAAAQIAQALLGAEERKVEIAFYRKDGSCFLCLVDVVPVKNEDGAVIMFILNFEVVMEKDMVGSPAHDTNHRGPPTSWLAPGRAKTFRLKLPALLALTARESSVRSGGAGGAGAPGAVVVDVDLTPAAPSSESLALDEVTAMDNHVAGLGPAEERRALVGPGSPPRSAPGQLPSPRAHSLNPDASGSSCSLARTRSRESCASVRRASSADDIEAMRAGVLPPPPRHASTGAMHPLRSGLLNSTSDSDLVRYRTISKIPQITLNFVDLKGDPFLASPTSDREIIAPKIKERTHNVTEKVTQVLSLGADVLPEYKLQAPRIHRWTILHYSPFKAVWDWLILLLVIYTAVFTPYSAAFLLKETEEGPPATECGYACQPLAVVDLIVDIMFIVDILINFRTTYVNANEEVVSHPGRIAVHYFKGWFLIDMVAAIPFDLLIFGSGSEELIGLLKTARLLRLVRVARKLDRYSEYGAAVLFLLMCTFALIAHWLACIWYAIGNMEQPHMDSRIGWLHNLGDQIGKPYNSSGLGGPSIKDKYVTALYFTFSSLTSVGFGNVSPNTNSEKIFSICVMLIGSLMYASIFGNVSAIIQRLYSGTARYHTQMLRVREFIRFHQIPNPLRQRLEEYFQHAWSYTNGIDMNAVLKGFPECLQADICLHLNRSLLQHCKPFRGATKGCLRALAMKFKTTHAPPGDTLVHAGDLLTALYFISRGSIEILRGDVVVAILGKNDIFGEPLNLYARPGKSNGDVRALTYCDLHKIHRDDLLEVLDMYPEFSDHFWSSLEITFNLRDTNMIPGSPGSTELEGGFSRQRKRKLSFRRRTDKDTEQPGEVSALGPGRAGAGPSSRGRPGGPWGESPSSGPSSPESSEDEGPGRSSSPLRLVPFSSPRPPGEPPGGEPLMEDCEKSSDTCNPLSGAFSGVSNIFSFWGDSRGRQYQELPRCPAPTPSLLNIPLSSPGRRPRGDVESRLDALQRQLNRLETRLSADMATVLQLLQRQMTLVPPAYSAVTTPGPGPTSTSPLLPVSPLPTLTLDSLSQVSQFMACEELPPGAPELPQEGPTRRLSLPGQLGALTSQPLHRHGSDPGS
Description for in vivo: Half life in rat at 5 mg/kg, po

In data set [1], `COc1cc2c(Oc3ccc4[nH]c(C)cc4c3F)ccnc2cc1OCC1(N)CC1` registered an IC50 of under 1 nM.

As to `O=S(=O)(Nc1cncc(-c2ccc3nccc(-c4ccncc4)c3c2)c1)c1ccccc1F`, inhibition in [2] was half-maximal at 0.1 nM (IC50).

`CCc1nc2c(C)cc(N3CCN(CC(=O)N4CC(O)C4)CC3)cn2c1N(C)c1nc(-c2ccc(F)cc2)c(C#N)s1` [ZIRITAXESTAT]: the clearance in data set [3] amounted to 11.5 mL/min/kg. For the same compound, the bioavailability in [4] was 34%.

Regarding `O=c1nc(OC[C@@H]2COCCO2)cc2n1CCc1cc(C#CC3CC3)ccc1-2` [GLPG-1205], the bioavailability in data set [5] was over 100%. For the same compound, in [6], the clearance stood at 15 mL/min/kg. Moreover, in “in vivo”, the half-life was 1.9 h.

For the compound `O=C1NC(=O)C(Cc2ccc3nccc(-c4ccncc4)c3c2)S1` (stereo not given), it took 2 nM to reach half-maximal inhibition in [2] (IC50).

With `CCCCOC(=O)NS(=O)(=O)c1sc(CC(C)C)cc1-c1ccc(Cn2c(CC)nc3c(C)cc(C)nc32)cc1`, the Ki in [7] came out at 3.9 nM.

At fMet-Leu-Phe receptor, `Cc1c(-c2ccccc2)nc2ccc(Br)cc2c1C(=O)NC[C@H](CC(=O)O)c1ccccc1Cl` yielded an IC50 of 32 nM.

In the case of `Cc1cc(NNC(=O)Nc2cc(Cl)nc(Cl)c2)ncc1-c1cn(C)nc1C`, the IC50 in [8] was over 1400 nM.

Regarding `COC(=O)c1ccc2c(c1)NC(=O)/C2=C(\Nc1ccc(N(C)C(=O)CN2CCN(C)CC2)cc1)c1ccccc1` [NINTEDANIB], the midpoint of inhibition in data set [9], the IC50, lay at 2600 nM.

For the compound `COC(=O)c1ccc2c(c1)NC(=O)/C2=C(\Nc1ccc2c(c1)CCN2C(=O)CN1CCOCC1)c1ccccc1`, the AUC in [10] is 6406 h/ng/mL. Also, the IC50 in data set [1] is 110 nM; in [12] it was 100 nM; in [14] it was 25 nM. Further, the half-life in [11] and in data set [13] was 4.8 h throughout.

In the case of `CNC(=O)c1cc2c(Oc3ccc(NC(=S)NC(=O)Cc4ccccc4)cc3F)ccnc2cc1OC` [TAS-115], inhibition in [15] was half-maximal at 7.06 nM (IC50).

In the case of `Cc1noc(-c2ccc(-c3ccc(C4(C(=O)O)CC4)cc3)cc2)c1NC(=O)O[C@H](C)c1ccccc1` [BMS-986020], the EC50 in data set [16] was determined as 6.7 nM.

The values above are taken from ChEMBL document CHEMBL5537112, “Emerging opportunities to treat idiopathic pulmonary fibrosis: Design, discovery, and optimizations of small-molecule drugs targeting fibrogenic pathways” (Eur J Med Chem, 2023).
